Legend:
[1] = Bleaching of tea stained test cloths, reflectance at 460 nm (Example VII); settings: 40° C., 30 minutes, 1×10^−3 mol peracid in 100 ml demineralised water, EDTA 2×10^−5 M
Method: (§1) Bleaching experiments were carried out in a temperature controlled glass vessel, equipped with a magnetic stirrer, thermocouple and a pH electrode, at a constant temperature of 40° C. pH was adjusted using 0.1M NaOH.
(§2) Peracid prepared according to example I was exchanged with SDS and 1×10^−3 mol added to 100 ml demineralised water and ethylene diamine tetraacteic acid (EDTA) (2×10^−5 M) in the glass vessel. Thereafter, tea stained test cloths were immersed in the solution for 30 minutes. The liquor to cloth ratio was greater than 20:1. After rinsing with tap water, the cloths were dried in a tumble drier.
(§3) Bleaching performance was determined using a Instrumental Colour Systems Micro-match to measure the reflectance, at 460 nm, of the cloths both before and after treatment. The difference (ΔR460*) in the values gives a measure of the effectiveness of the treatment.

[2] = Bleaching of tea stained test cloths with peroxyacid formed in situ with SDS or Coco-PAS (Example VIII); settings: EDTA 2×10^−5 M, pH 10; for ΔR460* Coco-PAS: peracid 1×10^−3 mol with Coco-PAS 2×10^−3 mol in 100 ml demineralised water; for ΔR460* SDS: peracid 1×10^−3 mol with SDS 2×10^−3 mol in 100 ml demineralised water
Method: as §1, §2, §3
Example VI was repeated using materials prepared according to examples I-VI and the comparative example. Peracid (1×10^−3 mol) was added to a glass vessel containing 100 ml demineralised water, EDTA, (2×10^−5 M), and SDS or Coco-PAS (2×10^−3 mol), i.e cationic peroxyacids according to the invention were formed in-situ. The pH was adjusted to pH 10 using 0.1NaOH. The difference (ΔR460*) in the values gives a measure of the effectiveness of the bleaching performance.

Molecule: C[N+](C)(C)CCOC(=O)Oc1ccc(S(=O)(=O)[O-])cc1 [CSPC, 2-(N,N,N-trimethylammonium)ethyl-4-sulphonyl carbonate]
- ΔR460* bleaching performance ([1]; pH 7.0): 20.0
- ΔR460* bleaching performance ([1]; pH 8.0): 22.0
- ΔR460* bleaching performance ([1]; pH 9.0): 20.0

Molecule: CS(=O)(=O)[O-].C[N+](C)(C)Cc1ccc(C(=O)OO)cc1 [Example I, α-Trimethylammonium-4-peroxytoluic Acid Methane Sulphonate]
- ΔR460* Coco-PAS [2]: 26.7
- ΔR460* SDS [2]: 24.0

Molecule: C[N+](C)(Cc1ccccc1)Cc1ccc(C(=O)OO)cc1.Cc1ccc(S(=O)(=O)[O-])cc1 [Example II, α-Benzyl-dimethylammonium-4-peroxytoluic Acid Tosylate]
- ΔR460* Coco-PAS [2]: 18.9
- ΔR460* SDS [2]: 21.9

Molecule: O=C(CCCCCN1C(=O)c2ccccc2C1=O)OO [PAP]
- ΔR460* bleaching performance ([1]; pH 7.0): 13.0
- ΔR460* bleaching performance ([1]; pH 8.0): 13.0
- ΔR460* bleaching performance ([1]; pH 9.0): 6.0
- ΔR460* bleaching performance ([1]; pH 10.0): 4.0

Molecule: CCCCCCCCC(=O)Oc1ccc(S(=O)(=O)[O-])cc1.[Na+] [SNOBS, Sodium nonoyloxybenzene sulphonate]
- ΔR460* bleaching performance ([1]; pH 9.0): 7.5
- ΔR460* bleaching performance ([1]; pH 10.0): 5.0

Molecule: α-Butyl-dimethylammonium-4-peroxytoluic Acid Tosylate [Example V]
- ΔR460* Coco-PAS [2]: 21.8
- ΔR460* SDS [2]: 23.7

Molecule: α-Heptyl-Dimethylammonium-4-Peroxytoluic Acid Tosylate [Example IV]
- ΔR460* SDS [2]: 14.5

Molecule: α-Octyl-dimethylammonium-4-peroxytoluic Acid Tosylate [Comparison]
- ΔR460* Coco-PAS [2]: 7.6
- ΔR460* SDS [2]: 8.0

Molecule: α-Pentyl-dimethylammonium-4-peroxytoluic Acid Tosylate [Example VI]
- ΔR460* Coco-PAS [2]: 18.6
- ΔR460* SDS [2]: 21.9

Molecule: αHexyl-dimethylammonium-4-peroxytoluic Acid Tosylate [Example III]
- ΔR460* Coco-PAS [2]: 16.1
- ΔR460* SDS [2]: 23.5

Reference: US6727382B1, “Peroxyacids” (Unilever Patent Holdings, B.V., priority 1992, dated 2004)
